Article PMC8708704, “Discovery of New Chemical Tools against Leishmania amazonensis via the MMV Pathogen Box” (Pharmaceuticals, 2021)
Where two headings read alike, the source gives them in different places. Blank lines part the entries; values can stand above or below the compound they belong to.

Legend:
[1] = test system: Leishmania amazonensis promastigotes; test: Leishmanicidal activity against promastigotes (alamarBlue assay; screening at 10 µM and IC50); type: cell-based; conditions: for IC50 / inhibition at 10 µM: 72 h; for IC50: read-out: Leishmania amazonensis Promastigotes IC50; for Selectivity Index (CC50/IC50), promastigotes: macrophage CC50 / promastigote IC50; for inhibition at 10 µM: first screening, read-out: % of inhibition at 10 µM (against L. amazonensis promastigotes)
Protocol: For the experiments, promastigotes of Leishmania amazonensis strain (MHOM/BR/77/LTB0016) were used; they were maintained in RPMI 1640 medium (Gibco, Massachusetts, USA) at 26 °C. […] Subsequently, the plates were analyzed on an EnSpire multimode plate reader (PerkinElmer, MA, USA) to measure their fluorescence after 72 h. […] To this end, serial dilutions were performed in 96 well plates, and incubated with the parasites for 72 h after adding alamarBlue®. Next, the plates were analyzed on the EnSpire plate reader and the IC50 values were calculated by using SigmaPlot 14.0 (Systat Software Inc., Chicago, IL, USA). Each concentration was tested in duplicate and in three independent experiments for all the compounds.

[2] = Cytotoxic activity against murine macrophages (alamarBlue); conditions: mouse
[3] = test system: Leishmania amazonensis intracellular amastigote; test: Intracellular amastigote activity (parasite rescue and transformation assay); type: cell-based; conditions: for IC50: Leishmania amazonensis, Macrophage, read-out: Leishmania amazonensis Intracellular Amastigote IC50; for Selectivity Index (CC50/IC50), intracellular amastigote: macrophage CC50 / amastigote IC50
Protocol: The intracellular amastigote activity was measured by parasite rescue and transformation assay, also performed according to Jain et al. […] The macrophages were placed in a 96 well plate at a density of 2 × 10^5/mL in DMEM and incubated for 5 h. […] After the incubation, the excess promastigotes were washed off and serial dilutions of the compounds were added. After 24 h of incubation, we removed the medium and added 30 μL of Schneider medium with 0.05% SDS to break the macrophages. The plate was shaken for 30 s and a further 180 μL of medium was added to each well. The plates were then incubated at 26 °C for 72 h for the transformation of the rescued amastigote into promastigotes. AlamarBlue® was added and the plates were measured and analyzed as discussed above.

CYP2C9 = test system: CYP2C9; set-up: method as in mmv.org; conditions: human cytochrome; ref mmv.org; cited from earlier work
thioredoxin reductase = test system: thioredoxin reductase; set-up: method as in PMID 18532880; conditions: cited from earlier work
CYP2D6 = test system: CYP2D6; set-up: method as in mmv.org; conditions: human cytochrome; ref mmv.org; cited from earlier work
[4] = test system: L. amazonensis promastigotes; test: Phosphatidylserine externalization (annexin V / propidium iodide, Tali); type: cell-based, Leishmania amazonensis; conditions: IC90, 24 h (Figure 4 legend: 48 h)
Source text: To measure the level of population that experiments phosphatidylserine externalization from the inner to the outer part of the cytoplasmic membrane, an Apoptosis kit for Tali (Invitrogen, Thermo Fisher Scientific, Waltham, MA, USA) was utilized. The kit employs annexin-v, which binds to the external phosphatidylserine, and propidium iodide, that penetrates dead cells, to classify the population of the cells as: alive ([…]), dead (propidium stained), and apoptotic (annexin stained). […] A minimum of three independent experiments were performed for this assay. The cells were then quantified by the image-based cytometer Tali® (Life Technologies, Thermo Fisher Scientific, Waltham, MA, USA).

[5] = test system: Leishmania amazonensis promastigotes; test: ATP levels (CellTiter-Glo); type: cell-based; conditions: IC90 of the compounds, 24 h
Protocol: To detect alterations due to the different treatments on the cellular ATP levels, CellTiter-Glo (Promega) was utilized. […] Finally, luminescence was measured on the EnSpire spectrophotometer (Perkin Elmer). The experiment was performed at least three times in duplicate on different days.

[6] = set-up: method as in mmv.org; conditions: ref mmv.org; cited from earlier work
[7] = test system: L. amazonensis promastigotes; test: Reactive oxygen species detection (CellROX Deep Red); type: cell-based, Leishmania amazonensis; conditions: IC90 of the compounds, 24 h
Protocol: After 30 min in darkness, the cells were observed under a fluorescent inverted microscope EVOS FL (Life Technologies, Thermo Fisher Scientific, Waltham, MA, USA). This staining was performed three times in independent tests. A positive control was performed as the internal control and corresponded to cells in which ROS production was achieved through the incubation of parasites with 600 µM hydrogen peroxide 30 min before detection.

[8] = test system: intracellular amastigotes of L. donovani; conditions: cited from earlier work
[9] = test system: Trypanosoma brucei brucei trypomastigotes; set-up: method as in PMID 28674055, PMID 19091562; conditions: cited from earlier work
[10] = test system: T. evansi trypomastigotes; set-up: method as in PMID 32112721; conditions: cited from earlier work
NADPH oxidase 4 = test system: NADPH oxidase 4; set-up: method as in PMID 20731357; conditions: cited from earlier work
[11] = test system: L. donovani promastigotes; set-up: method as in PMID 32280200; conditions: cited from earlier work
[12] = test system: T. cruzi intracellular amastigotes; set-up: method as in PMID 19091562; conditions: cited from earlier work
[13] = test system: methionine aminopeptidase; set-up: method as in PMID 28674055; conditions: cited from earlier work
Plasmodium falciparum = test system: Plasmodium falciparum; set-up: method as in PMID 19091562; conditions: cited from earlier work
[14] = test system: intracellular amastigotes; conditions: read-out: IC50 against intracellular amastigotes, cited from earlier work
promastigotes = conditions: read-out: IC50 against promastigotes, cited from earlier work
[15] = Leishmania amazonensis, alamarBlue
[16] = 24 h treatment of infected macrophages, rescue 72 h

Compound: COc1nc2ccc(Br)cc2cc1[C@@H](c1ccccc1)[C@@](O)(CCN(C)C)c1cccc2ccccc12 [Compound 1, Bedaquiline, reference compound]
IC50 ([1]; Leishmania amazonensis): 6.43 ± 1.06 µM
Selectivity Index (CC50/IC50), promastigotes [1]: >1.56
CC50 at 24 h [2]: > 10 µM
IC50 [3]: > 10 µM

Compound: N#Cc1nc(-c2ccccc2)oc1S(=O)(=O)c1ccc(Cl)cc1 [Compound 2]
IC50 [1, 15]: 4.03 ± 0.73 µM
Selectivity Index (CC50/IC50), promastigotes [1]: >2.48
CC50 at 24 h ([2]; J774A.1 murine macrophages): > 10 µM
IC50 [3, 16]: > 10 µM

Compound: COc1cccc(-n2nnnc2S(=O)(=O)Cc2ccccc2)c1 [Compound 3, 5-(Benzylsulfonyl)-1-(3-methoxyphenyl)-1H-tetrazole]
IC50 [1, 15]: < 2 µM
inhibition at 10 µM ([1]; Leishmania amazonensis): 91%
IC50 ([1]; alamarBlue): 1.33 ± 0.12 µM
IC50 (CYP2C9): > 20 µM
Interference with thioredoxin reductase (thioredoxin reductase): interferes
IC50 (CYP2D6): 15 µM
CC50 at 24 h ([2]; J774A.1 murine macrophages): 8.02 ± 0.93 µM
IC50 [3, 16]: 4.78 ± 1.2 µM
Selectivity Index (CC50/IC50), intracellular amastigote [3]: 1.68
Dead population (propidium iodide stained) [4]: higher percentage
Translocation of phosphatidylserine, part of the parasite population [4]: higher than 50%
ATP levels [5]: strong decrease
Glutathione Reactivity [6]: Medium

IC50 [3, 16]: > 10 µM
Compound: Cn1c(=O)c2c(S(C)(=O)=O)snc2n(C)c1=O [Compound 4]
IC50 [1, 15]: < 2 µM
IC50 ([1]; alamarBlue): 1.44 ± 0.24 µM
Selectivity Index (CC50/IC50), promastigotes [1]: 2.94
CC50 at 24 h ([2]; J774A.1 murine macrophages): 4.3 ± 0.16 µM

IC50 [3, 16]: 1.25 ± 0.28 µM
Compound: C[C@H](c1ccc2c(c1)CCCC2)N(C)c1ncc2c(N)nc(N)nc2n1 [Compound 5, 2-N-Methyl-2-N-[(1R)-1-(5,6,7,8-tetrahydronaphthalen-2-yl)ethyl]pyrimido [4,5-d]pyrimidine-2,5,7-triamine]
IC50 [1, 15]: 0.59 ± 0.08 µM
inhibition at 10 µM ([1]; Leishmania amazonensis): 90%
Selectivity Index (CC50/IC50), promastigotes [1]: >17.06
IC50 (CYP2C9): > 20 µM
IC50 (CYP2D6): > 20 µM
CC50 at 24 h ([2]; J774A.1 murine macrophages): > 10 µM
Selectivity Index (CC50/IC50), intracellular amastigote [3]: >8.00
Dead population (propidium iodide stained) [4]: higher percentage
Translocation of phosphatidylserine, part of the parasite population [4]: higher than 50%
ATP levels [5]: strong decrease
ROS accumulation (CellROX Deep Red fluorescence) [7]: too damaged to contain the dye
Anti-leishmanial activity (L. donovani) ([8]; stage not clearly stated for this compound): activity
Glutathione Reactivity [6]: Medium
Activity against Trypanosoma brucei brucei trypomastigotes [9]: activity

IC50 [3, 16]: 8.52 ± 0.67 µM
Compound: CCCn1c(NC(=O)c2ccc3ccccc3n2)nc2ccccc21 [Compound 6]
IC50 [1, 15]: 3.93 ± 0.64 µM
Selectivity Index (CC50/IC50), promastigotes [1]: >2.54
CC50 at 24 h ([2]; J774A.1 murine macrophages): > 10 µM
Selectivity Index (CC50/IC50), intracellular amastigote [3]: >1.17
Glutathione Reactivity [6]: medium

IC50 [3, 16]: 2.5 ± 0.27 µM
Compound: CN1CCC(NCc2cccc(-c3ccc(S(=O)(=O)NCc4ccccc4)cc3)c2)CC1 [Compound 7, N-Benzyl-4-[3-[[(1-methylpiperidin-4-yl)amino]methyl]phenyl]benzenesulfonamide]
IC50 [1, 15]: < 2 µM
inhibition at 10 µM ([1]; Leishmania amazonensis): 91%
IC50 ([1]; alamarBlue): 1.84 ± 0.14 µM
Selectivity Index (CC50/IC50), promastigotes [1]: >5.44
IC50 (CYP2C9): > 20 µM
IC50 (CYP2D6): > 20 µM
CC50 at 24 h ([2]; J774A.1 murine macrophages): > 10 µM
Selectivity Index (CC50/IC50), intracellular amastigote [3]: >4.00
ROS accumulation (CellROX Deep Red fluorescence) [7]: accumulation of ROS
Glutathione Reactivity [6]: No GSH adduct
Activity against Trypanosoma brucei brucei trypomastigotes [9]: activity

IC50 [3, 16]: 6.85 ± 0.75 µM
Compound: CN1CCN(CCCOc2ncc(Nc3ncc(-c4ccc(C(F)(F)F)c(F)c4)nc3C(N)=O)cn2)CC1 [Compound 8]
IC50 [1, 15]: 2.62 ± 0.4 µM
Selectivity Index (CC50/IC50), promastigotes [1]: 3.06
CC50 at 24 h ([2]; J774A.1 murine macrophages): 8.01 ± 1.13 µM
Selectivity Index (CC50/IC50), intracellular amastigote [3]: 1.17

IC50 [3, 16]: 6.9 ± 1.79 µM
Compound: O=C(Nc1ccc(N2CCNCC2)cc1)c1ccn2ncc(-c3cccc(Cl)c3)c2n1 [Compound 9, 3-(3-Chlorophenyl)-N-(4-piperazin-1-ylphenyl)pyrazolo [1,5-a]pyrimidine-5-carboxamide]
IC50 [1, 15]: 0.77 ± 0.01 µM
inhibition at 10 µM ([1]; Leishmania amazonensis): 91%
Selectivity Index (CC50/IC50), promastigotes [1]: 9.35
IC50 (CYP2C9): > 20 µM
IC50 (CYP2D6): > 20 µM
CC50 at 24 h ([2]; J774A.1 murine macrophages): 7.22 ± 2.36 µM
Selectivity Index (CC50/IC50), intracellular amastigote [3]: 1.05
ROS accumulation (CellROX Deep Red fluorescence) [7]: accumulation of ROS
Activity against T. evansi trypomastigotes [10]: active
Inhibition of NADPH oxidase 4 (NADPH oxidase 4): inhibits
Activity against L. donovani promastigotes [11]: activity
Glutathione Reactivity [6]: No GSH adduct
Activity against Trypanosoma brucei brucei trypomastigotes [9]: activity

Compound: c1ccc(-c2nc(NC3CCCCC3)cc(C3CC3)n2)nc1 [Compound 10, N-Cyclohexyl-6-cyclopropyl-2-pyridin-2-ylpyrimidin-4-amine]
IC50 [1, 15]: < 2 µM
inhibition at 10 µM ([1]; Leishmania amazonensis): 90%
IC50 ([1]; alamarBlue): 1.85 ± 0.39 µM
Selectivity Index (CC50/IC50), promastigotes [1]: >5.40
IC50 (CYP2C9): > 20 µM
IC50 (CYP2D6): > 20 µM
CC50 at 24 h ([2]; J774A.1 murine macrophages): > 10 µM
IC50 [3, 16]: 1.33 ± 0.36 µM
Selectivity Index (CC50/IC50), intracellular amastigote [3]: >7.52
ATP levels [5]: less pronounced decrease
ROS accumulation (CellROX Deep Red fluorescence) [7]: accumulation of ROS
Activity against T. cruzi intracellular amastigotes [12]: active
Inhibition of methionine aminopeptidase [13]: inhibitor
Activity against intracellular amastigotes of L. donovani [8]: activity
Activity against Plasmodium falciparum (Plasmodium falciparum): active
Glutathione Reactivity [6]: No GSH adduct
Activity against Trypanosoma brucei brucei trypomastigotes [9]: activity

Compound: CCCCCCCCCCCCCCCCOP(=O)([O-])OCC[N+](C)(C)C [Miltefosine]
Selectivity Index (CC50/IC50), promastigotes [1]: 11.14
CC50 at 24 h ([2]; J774A.1 murine macrophages): 72.2 ± 3.06 µM
Selectivity Index (CC50/IC50), intracellular amastigote [3]: 23.14
IC50 ([14]; ref Alonso et al. [15]): 1.8 µM
IC50 ([14]; ref Trinconi et al. [16]): 2.6 µM
IC50 (promastigotes; ref Alonso et al. [15]): 7.8 µM
IC50 (promastigotes; ref Trinconi et al. [16]): 16.8 µM
